Entries after “also recorded” stand apart in the source; their conditions may differ.
Columns and labels:
[1] = molecular target: T1, human PPARγ ligand binding domain (Homo sapiens, UniProt P37231); assay: PPAR reporter gene assay (Gal4 hybrid, PPARγ); details: for Emax: read-out: PPARγ maximal activation, HEK-293T, relative to pioglitazone (1 μM)
T1 sequence (P37231 238-503 limits assumed): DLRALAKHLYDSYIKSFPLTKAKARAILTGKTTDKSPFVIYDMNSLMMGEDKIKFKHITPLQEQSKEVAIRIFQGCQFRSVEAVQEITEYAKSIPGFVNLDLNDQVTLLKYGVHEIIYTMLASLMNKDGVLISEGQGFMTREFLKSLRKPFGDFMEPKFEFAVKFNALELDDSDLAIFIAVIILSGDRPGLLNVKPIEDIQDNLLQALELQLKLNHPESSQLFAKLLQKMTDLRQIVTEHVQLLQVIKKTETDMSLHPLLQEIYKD
Description: HEK-293T cells were seeded in 96-well plates (2.5 × 10^4 cells/well) and were allowed to adhere overnight. Before transfection, medium was changed to Opti-MEM without supplements. Transient plasmid transfection was carried out using Lipofectamine LTX reagent (Invitrogen, Carlsbad, CA, United States) according to the manufacturer’s protocol with pFR-Luc (Stratagene, La Jolla, CA, United States), pRL-SV40 (Promega, Fitchburg, MA, United States) and pFA-CMV-PPAR-LBD ([Rau et al., 2006]). 5 h after transfection, medium was changed to Opti-MEM supplemented with penicillin (100 U/mL) and streptomycin (100 μg/mL), now additionally containing 0.1% DMSO and the respective test compound or 0.1% DMSO alone as untreated control. Each concentration was tested in triplicates and each experiment was repeated independently at least four times. Following overnight (12–16 h) incubation with the test compounds, cells were assayed for luciferase activity using the Dual-Glo^TM Luciferase Assay System (Promega, Fitchburg, MA, United States) according to the manufacturer’s protocol. Luminescence was measured with an Infinite M200 luminometer (Tecan Group Ltd., Männedorf, Switzerland). Normalization of transfection efficiency and cell growth was done by division of firefly luciferase data by renilla luciferase data and multiplying the value by 1000 resulting in relative light units (RLU). Fold activation was obtained by dividing the mean RLU of a test compound at a respective concentration by the mean RLU of untreated control. Relative activation was obtained by dividing the fold activation of a test compound at a respective concentration by the fold activation of the respective PPARα, γ or δ full agonist GW-7647, pioglitazone or L165,041 at 1 μM. EC50 and standard deviation were calculated with the mean relative activation values of at least four independent experiments by SigmaPlot 10.0 (Systat Software GmbH, Erkrath, Germany) using a four parameter logistic regression.
For this, a hybrid receptor construct containing the respective human PPAR ligand binding domain and hinge region fused to the DNA binding domain of the yeast nuclear receptor Gal4 and a Gal4-responsive firefly luciferase construct were co-transfected into HEK-293T cells together with a plasmid constitutively expressing Renilla luciferase for normalization of transfection efficiency and cell growth. Activation of the PPAR isoforms was compared to 1 μM of the well characterized agonists GW7647, L165,041, and pioglitazone for PPARα, δ, and γ, respectively.

[2] = molecular target: T2, human PPARα ligand binding domain (Homo sapiens, UniProt Q07869); assay: PPAR reporter gene assay (Gal4 hybrid, PPARα); type: cell-based; details: HEK-293T, reference GW7647 1 μM, tested up to 10 μM
T2 construct: expressed in transfected cells; host or cells: HEK-293T
T2 sequence (Q07869 239-466 limits assumed): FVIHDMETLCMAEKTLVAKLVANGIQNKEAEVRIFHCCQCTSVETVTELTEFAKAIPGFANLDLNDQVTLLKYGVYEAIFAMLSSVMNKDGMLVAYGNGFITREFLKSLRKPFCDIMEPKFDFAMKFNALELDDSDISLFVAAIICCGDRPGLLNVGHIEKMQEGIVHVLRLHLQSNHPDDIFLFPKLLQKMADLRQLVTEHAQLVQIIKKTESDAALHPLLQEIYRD
Description: HEK-293T cells were seeded in 96-well plates (2.5 × 10^4 cells/well) and were allowed to adhere overnight. Before transfection, medium was changed to Opti-MEM without supplements. Transient plasmid transfection was carried out using Lipofectamine LTX reagent (Invitrogen, Carlsbad, CA, United States) according to the manufacturer’s protocol with pFR-Luc (Stratagene, La Jolla, CA, United States), pRL-SV40 (Promega, Fitchburg, MA, United States) and pFA-CMV-PPAR-LBD ([Rau et al., 2006]). 5 h after transfection, medium was changed to Opti-MEM supplemented with penicillin (100 U/mL) and streptomycin (100 μg/mL), now additionally containing 0.1% DMSO and the respective test compound or 0.1% DMSO alone as untreated control. Each concentration was tested in triplicates and each experiment was repeated independently at least four times. Following overnight (12–16 h) incubation with the test compounds, cells were assayed for luciferase activity using the Dual-Glo^TM Luciferase Assay System (Promega, Fitchburg, MA, United States) according to the manufacturer’s protocol. Luminescence was measured with an Infinite M200 luminometer (Tecan Group Ltd., Männedorf, Switzerland). Normalization of transfection efficiency and cell growth was done by division of firefly luciferase data by renilla luciferase data and multiplying the value by 1000 resulting in relative light units (RLU). Fold activation was obtained by dividing the mean RLU of a test compound at a respective concentration by the mean RLU of untreated control. Relative activation was obtained by dividing the fold activation of a test compound at a respective concentration by the fold activation of the respective PPARα, γ or δ full agonist GW-7647, pioglitazone or L165,041 at 1 μM. EC50 and standard deviation were calculated with the mean relative activation values of at least four independent experiments by SigmaPlot 10.0 (Systat Software GmbH, Erkrath, Germany) using a four parameter logistic regression. […]

3T3-L1 cells = assay: WST-1 assay (mitochondrial activity) in differentiating 3T3-L1 cells; type: cell-based, murine; details: 48 h with differentiation cocktail
Description: For measurement of cell proliferation, 3T3-L1 cells were seeded in 24-well plates (0.55 × 10^5/well) instead of 6-wells and the differentiation was carried out as described in the section ‘Adipocyte differentiation’. After 2 days of incubation with the differentiation cocktail with or without the PPARγ agonists, WST-1 reagent (Roche Diagnostic GmbH, Mannheim, Germany) was added (1:10) to the supernatant of the differentiating cells. Then, the cells were further incubated for 2 h at 37°C, 5% CO2 to allow color development. After this, cell supernatant absorbance was measured (λabs = 450 nm) and corrected to a reference wavelength (λabs = 690 nm) with an Infinite F200 plate reader (Tecan Group Ltd., Männedorf, Switzerland). After this, background absorbance was subtracted from all measurements and values were normalized to the differentiated control receiving the differentiation cocktail without addition of a PPARγ agonist (w/o).
In addition to lipid accumulation, mitochondrial activity of 3T3-L1 cells during differentiation was investigated by the turnover of the tetrazolium salt WST-1 into a formazan dye. This provides not only further information on the metabolic capacity of the cells after differentiation but can also indicate toxicity of compounds. For this, 3T3-L1 cells were treated with the differentiation cocktail in the presence or absence of PPARγ agonists for 48 h. After this, WST-1 turnover as a measure for mitochondrial activity was assessed (Figure 2C).

[3] = test system: PPARγ, FABP-4 and CD36 protein in 3T3-L1 adipocytes; assay: Protein expression in differentiated 3T3-L1 adipocytes (Western Blot); type: cell-based, murine; details: rosiglitazone 2 μM; for PPARγ isoforms γ1 and γ2 protein expression: 3T3-L1 differentiated with cocktail plus compound; for Protein expression of PPARγ target genes FABP-4 and CD36: after 14 days
Description: 3T3-L1 cells were differentiated into adipocytes for 14 days according to the protocol of [Zebisch et al. (2012)]. For this, cells were seeded in 6-well plates ([…]) and differentiation was induced after 48 h by addition of a differentiation cocktail containing 1 μg/mL insulin, 0.25 μM dexamethasone and 0.5 mM isobutylmethylxanthine (IBMX) in DMEM supplemented with 10% FCS and 1% PS. […] After 2 days, medium was replaced by DMEM supplemented with 10% FCS, 1% PS and 1 μg/mL insulin for 2 more days. Afterwards, cells were kept for lipid droplet accumulation in DMEM containing 10% FCS and 1% PS until day 15. Media were replaced every other day.
Total 3T3-L1 or HEP-G2 cell lysates were prepared in lysis buffer (20 mM Tris-HCl, pH 7.4, 150 mM NaCl, 2 mM EDTA, 1% Triton X-100, 0.5% NP-40) supplemented with protease and phosphatase inhibitors (PhosSTOP^TM + cOmplete^TM Mini, Roche Diagnostics GmbH, Mannheim, Germany). Protein concentrations were quantified using the Pierce^TM BCA Protein Assay Kit (Thermo Scientific, Waltham, MA, United States). Total protein (30 μg/lane) was separated by SDS-polyacrylamide gel electrophoresis and transferred to nitrocellulose membranes (GE Healthcare Life Sciences, Little Chalfont, United Kingdom). Membranes were blocked with Odyssey blocking reagent (LI-COR Biosciences, Bad Homburg, Germany) for 1 h at room temperature. Ensuing, membranes were incubated with antibodies against CD36 (EPR6573, Abcam, Cambridge, United Kingdom), PPARγ (E-8, Santa Cruz Biotechnology, Heidelberg, Germany), FABP-4 (C-15, Santa Cruz Biotechnology, Heidelberg, Germany) or PPARγ Ser273 (Bioss Antibodies Inc., Woburn, MA, United States) overnight at 4°C. Afterwards, membranes were washed and incubated with fluorescence conjugated secondary antibodies (IRDye, LI-COR Biosciences, Bad Homburg, Germany). Protein antibody complexes were visualized on the Odyssey Infrared Imaging System (LI-COR Biosciences, Bad Homburg, Germany). β-actin (I-19, goat, polyclonal, Santa Cruz Biotechnology, Heidelberg, Germany) was used as loading control. The density of the immune reactive bands was analyzed using the Image Studio 5.2 software (LI-COR Biosciences, Bad Homburg, Germany).
As master regulator of adipocyte differentiation in men and mice, PPARγ plays a crucial role in the cell’s commitment to the adipocyte lineage by controlling important functions such as intracellular biosynthesis, transport and accumulation of lipids. Murine 3T3-L1 fibroblasts are a well characterized in vitro tool to study PPARγ induced adipocyte differentiation. These cells can be differentiated from fibroblasts into adipocytes by an activation cocktail (0.5 mM IBMX, 1 μg/mL insulin, 0.25 μM dexamethasone) together with the potential PPARγ agonist. Upon differentiation, different parameters such as lipid accumulation and PPARγ target gene expression can be assessed to investigate the PPARγ activating potential of the compounds of interest. […] Rosiglitazone (2 μM) was used as positive control. This was followed by insulin (1 μg/mL) treatment for another 48 h. After this, cells were kept in growth medium for a week to complete the differentiation process and allow intracellular lipid accumulation. Subsequently, the cells were stained with Oil Red O solution to investigate the extent of cytoplasmic lipid droplet accumulation as a measure for cell differentiation.
In addition to mRNA expression, the protein expression levels of the two PPARγ target genes FABP-4 and CD36 in differentiated 3T3-L1 cells after 14 days were investigated. For this, total protein lysates were separated by gel electrophoresis followed by Western Blotting (Figure 3E,F and Supplementary Figures S2A,B).

Row | EC50 [1] | Emax ([1]; HEK-293T) | PPARγ maximal activation ([1]; HEK-293T, relative to pioglitazone (1 μM)) | PPARα EC50 [2] | Structure (SMILES) | WST-1 turnover (mitochondrial activity) versus w/o control (3T3-L1 cells; 1 μM) | WST-1 turnover (mitochondrial activity) versus w/o control (3T3-L1 cells; 5 and 10 μM) | PPARγ isoforms γ1 and γ2 protein expression [3] | Protein expression of PPARγ target genes FABP-4 and CD36 [3] | WST-1 turnover (mitochondrial activity) versus w/o control (3T3-L1 cells; 10 μM)
1 | 2.49 ± 0.45 µM | ~150% | 148 ± 15% | i.a. @ 10 μM | COc1cc(C(=O)NS(=O)(=O)c2ccccc2C)ccc1Cc1cn(C)c2ccc(NC(=O)OC3CCCC3)cc12 [Zafirlukast, zafirlukast] | threefold | comparable to the w/o control; also recorded: had no influence on mitochondrial activity | upregulated the protein levels | induced target gene expression as well but to a weaker extent | 
2 |  | 21.9% |  | i.a. @ 10 μM | CC(C)(O)c1ccccc1CC[C@@H](SCC1(CC(=O)O)CC1)c1cccc(/C=C/c2ccc3ccc(Cl)cc3n2)c1 [Montelukast, montelukast] |  |  | not affected | no effect at all | over threefold
